Results published in patent publication EP1007530B1, “6-O-SUBSTITUTED ERYTHROMYCIN COMPOUNDS AND METHOD FOR MAKING SAME” (ABBOTT LABORATORIES, priority 1996, dated 1997).

Experiments:
Experiment in all cases: In vitro assay of antibacterial activity (agar dilution MIC)
Assay type in all cases: cell-based
[1] = system: Actinetobacter calcoaceticus CMX 669; details: BHI agar, 35-37 °C, 20 to 24 hours, unit assumed
Experimental: (§1) Representative compounds of the present invention were assayed in vitro for antibacterial activity as follows: Twelve petri dishes containing successive aqueous dilutions of the test compound mixed with 10 mL of sterilized Brain Heart Infusion (BHI) agar (Difco 0418-01-5) were prepared. Each plate was inoculated with 1:100 (or 1:10 for slow-growing strains, such as Micrococcus and Streptococcus) dilutions of up to 32 different microorganisms, using a Steers replicator block. The inoculated plates were incubated at 35-37 °C for 20 to 24 hours, In addition, a control plate, using BHI agar containing no test compound, was prepared and incubated at the beginning and end of each test.
(§2) An additional plate containing a compound having known susceptibility patterns for the organisms being tested and belonging to the same antibiotic class as the test compound was also prepared and incubated as a further control, as well as to provide test-to-test comparability.
(§3) After incubation, each plate was visually inspected. The minimum inhibitory concentration (MIC) was defined as the lowest concentration of drug yielding no growth, a slight haze, or sparsely isolated colonies on the inoculum spot as compared to the growth control. […]

[2] = system: Staphylococcus aureus A5177; details: BHI agar, 35-37 °C, 20 to 24 hours, unit assumed
Experimental: as §1, §2, §3

[3] = system: Streptococcus agalactiae CMX 508; details: BHI agar, 35-37 °C, 20 to 24 hours, unit assumed
Experimental: as §1
(§4) An additional plate containing a compound having known susceptibility patterns for the organisms being tested and belonging to the same antibiotic class as the test compound was also prepared and incubated as a further control, as well as to provide test-to-test comparability. Erythromycin A was used for this purpose.
as §3

[4] = system: Providencia struartii CMX 640; details: BHI agar, 35-37 °C, 20 to 24 hours, unit assumed
Experimental: as §1, §4, §3

[5] = system: Streptococcus pyogenes PIU 2548; details: BHI agar, 35-37 °C, 20 to 24 hours, unit assumed
Experimental: as §1, §4, §3

[6] = system: Pseudomonas aeruginosa K799/WT; details: BHI agar, 35-37 °C, 20 to 24 hours, unit assumed
Experimental: as §1, §4, §3

[7] = system: Escherichia coli JUHL; details: BHI agar, 35-37 °C, 20 to 24 hours, in µg/mL (unit assumed)
Experimental: as §1, §4, §3

[8] = system: Candida albicans CCH 442; details: BHI agar, 35-37 °C, 20 to 24 hours, unit assumed
Experimental: as §1, §4, §3

[9] = system: Enterobacter aerogenes ATCC 13048; details: BHI agar, 35-37 °C, 20 to 24 hours, unit assumed
Experimental: as §1, §4, §3

[10] = system: Escherichia coli KNK 437; details: BHI agar, 35-37 °C, 20 to 24 hours, unit assumed
Experimental: as §1, §4, §3

[11] = system: Escherichia coli SS; details: BHI agar, 35-37 °C, 20 to 24 hours, unit assumed
Experimental: as §1, §4, §3

[12] = system: Staphylococcus aureus ATCC 6538P; details: BHI agar, 35-37 °C, 20 to 24 hours, unit assumed
Experimental: as §1, §4, §3

[13] = system: Escherichia coli DC-2; details: BHI agar, 35-37 °C, 20 to 24 hours, unit assumed
Experimental: as §1, §4, §3

[14] = system: Pseudomonas aeruginosa DPHD-2862; details: BHI agar, 35-37 °C, 20 to 24 hours, unit assumed
Experimental: as §1, §4, §3

[15] = system: Staphylococcus epidermidis 3519; details: BHI agar, 35-37 °C, 20 to 24 hours, unit assumed
Experimental: as §1, §4, §3

[16] = system: Klebsiella pneumoniae ATCC 8045; details: BHI agar, 35-37 °C, 20 to 24 hours, unit assumed
Experimental: as §1, §4, §3

[17] = system: Staphylococcus aureus A-5278; details: BHI agar, 35-37 °C, 20 to 24 hours, unit assumed
Experimental: as §1, §4, §3

[18] = system: Streptococcus pyogenes EES61; details: BHI agar, 35-37 °C, 20 to 24 hours, unit assumed
Experimental: as §1, §4, §3

[19] = system: Pseudomonas aeruginosa BMH10; details: BHI agar, 35-37 °C, 20 to 24 hours, in µg/mL (unit assumed)
Experimental: as §1, §4, §3

[20] = system: Pseudomonas aeruginosa 5007; details: BHI agar, 35-37 °C, 20 to 24 hours, unit assumed
Experimental: as §1, §4, §3

[21] = system: Pseudomonas capacia 2961; details: BHI agar, 35-37 °C, 20 to 24 hours, in µg/mL (unit assumed)
Experimental: as §1, §4, §3

[22] = system: Escherichia coli H560; details: BHI agar, 35-37 °C, 20 to 24 hours, unit assumed
Experimental: as §1, §4, §3

[23] = system: Pseudomonas aeruginosa DPHD-5263; details: BHI agar, 35-37 °C, 20 to 24 hours, in µg/mL (unit assumed)
Experimental: as §1, §4, §3

[24] = system: Streptococcus bovis A-5169; details: BHI agar, 35-37 °C, 20 to 24 hours, unit assumed
Experimental: as §1, §4, §3

[25] = system: Enterococcus faecium ATCC 8043; details: BHI agar, 35-37 °C, 20 to 24 hours, unit assumed
Experimental: as §1, §4, §3

[26] = system: Staphylococcus aureus CMX 642A; details: BHI agar, 35-37 °C, 20 to 24 hours, unit assumed
Experimental: as §1, §4, §3

[27] = system: Streptococcus pyogenes 930; details: BHI agar, 35-37 °C, 20 to 24 hours, unit assumed
Experimental: as §1, §4, §3

[28] = system: Micrococcus luteus ATCC 9341; details: BHI agar, 35-37 °C, 20 to 24 hours, unit assumed
Experimental: as §1, §4, §3

[29] = system: Micrococcus luteus ATCC 4698; details: BHI agar, 35-37 °C, 20 to 24 hours, unit assumed
Experimental: as §1, §4, §3

[30] = system: Staphylococcus aureus CMX 553; details: BHI agar, 35-37 °C, 20 to 24 hours, unit assumed
Experimental: as §1, §4, §3

[31] = system: Staphylococcus aureus NCTC10649M; details: BHI agar, 35-37 °C, 20 to 24 hours, unit assumed
Experimental: as §1, §4, §3

[32] = system: Staphylococcus aureus 1775; details: BHI agar, 35-37 °C, 20 to 24 hours, unit assumed
Experimental: as §1, §4, §3

[33] = system: Pseudomonas aeruginosa K799/61; details: BHI agar, 35-37 °C, 20 to 24 hours, unit assumed
Experimental: as §1, §4, §3

[34] = system: Mycobacterium smegmatis ATCC 114; details: BHI agar, 35-37 °C, 20 to 24 hours, unit assumed
Experimental: as §1, §4, §3

| SMILES | MIC [1] [µg/mL] | MIC [3] [µg/mL] | MIC [4] [µg/mL] | MIC [6] [µg/mL] | MIC [7] | MIC [8] [µg/mL] | MIC [9] [µg/mL] | MIC [10] [µg/mL] | MIC [11] [µg/mL] | MIC [12] [µg/mL] | MIC [13] [µg/mL] | MIC [14] [µg/mL] | MIC [15] [µg/mL] | MIC [17] [µg/mL] | MIC [18] [µg/mL] | MIC [19] | MIC [20] [µg/mL] | MIC [21] | MIC [22] [µg/mL] | MIC [23] | also measured |
| --- | --- | --- | --- | --- | --- | --- | --- | --- | --- | --- | --- | --- | --- | --- | --- | --- | --- | --- | --- | --- | --- |
| CCCO[C@]1(C)C[C@@H](C)C(=O)[C@H](C)[C@@H](O)[C@](C)(O)[C@@H](CC)OC(=O)[C@H](C)[C@@H](O[C@H]2C[C@@](C)(OC)[C@@H](O)[C@H](C)O2)[C@H](C)[C@H]1O[C@@H]1O[C@H](C)C[C@H](N(C)C)[C@H]1O [Example 2, Compound of Formula (X): X is =O, R is propyl] | > 100 | 0.2 | > 100 | 6.2 | >100 | 0.1 | > 100 | > 100 | 1.56 | 3.1 | > 100 | > 100 | 1.56 | > 100 | 0.05 | >100 | > 100 | 50 | > 100 | >100 | MIC [2]: 25 µg/mL; MIC [5]: 6.2 µg/mL; MIC [16]: > 100 µg/mL; MIC [24]: 0.05 µg/mL; MIC [25]: 3.1 µg/mL; MIC [26]: 12.5 µg/mL; MIC [27]: > 100 µg/mL; MIC [28]: 0.2 µg/mL; MIC [29]: 3.1 µg/mL; MIC [30]: 3.1 µg/mL; MIC [31]: 6.2 µg/mL; MIC [32]: > 100 µg/mL; MIC [33]: > 100 µg/mL |
| CC[C@H]1OC(=O)[C@H](C)[C@@H](O[C@H]2C[C@@](C)(OC)[C@@H](O)[C@H](C)O2)[C@H](C)[C@@H](O[C@@H]2O[C@H](C)C[C@H](N(C)C)[C@H]2O)[C@](C)(OCC(O)Cn2ccnc2)C[C@@H](C)C(=O)[C@H](C)[C@@H](O)[C@]1(C)O (some centres unmarked) [Example 5, Compound of Formula (X): X is =O, R is 2-hydroxy-3-(imidazol-1-yl)propyl] | 12.5 | 0.1 | > 100 | > 100 | 25 | > 100 | 100 | 50 | 0.78 | 0.78 | 50 | > 100 | 1.56 | > 100 | 0.05 | 100 | > 100 | > 100 | 50 | > 100 | MIC [2]: 12.5 µg/mL; MIC [34]: 1.56 µg/mL; MIC [16]: 100 µg/mL; MIC [24]: 0.05 µg/mL; MIC [25]: 0.39 µg/mL; MIC [26]: 0.78 µg/mL; MIC [27]: > 100 µg/mL; MIC [28]: 0.1 µg/mL; MIC [29]: 3.1 µg/mL; MIC [30]: 0.78 µg/mL; MIC [31]: 0.78 µg/mL; MIC [32]: > 100 µg/mL; MIC [33]: 1.56 µg/mL |
| CC[C@H]1OC(=O)[C@H](C)[C@@H](O[C@H]2C[C@@](C)(OC)[C@@H](O)[C@H](C)O2)[C@H](C)[C@@H](O[C@@H]2O[C@H](C)C[C@H](N(C)C)[C@H]2O)[C@](C)(OCC(O)CNCc2ccccc2)C[C@@H](C)C(=O)[C@H](C)[C@@H](O)[C@]1(C)O (some centres unmarked) [Example 7, Compound of Formula (X): X is =O, R is 2-hydroxy-3-(benzylamino)propyl] | 12.5 | 0.01 | > 100 | 100 | 12.5 | > 100 | 50 | 12.5 | 0.2 | 0.39 | 6.2 | > 100 | 0.39 | > 100 | 0.01 | 25 | > 100 | > 100 | 1.56 | > 100 | MIC [2]: 3.1 µg/mL; MIC [34]: 0.2 µg/mL; MIC [16]: 25 µg/mL; MIC [24]: 0.01 µg/mL; MIC [25]: 0.39 µg/mL; MIC [26]: 0.39 µg/mL; MIC [27]: > 100 µg/mL; MIC [28]: 0.02 µg/mL; MIC [29]: 0.78 µg/mL; MIC [30]: 0.39 µg/mL; MIC [31]: 0.39 µg/mL; MIC [32]: > 100 µg/mL; MIC [33]: 0.39 µg/mL |
| CC[C@H]1OC(=O)[C@H](C)[C@@H](O[C@H]2C[C@@](C)(OC)[C@@H](O)[C@H](C)O2)[C@H](C)[C@@H](O[C@@H]2O[C@H](C)C[C@H](N(C)C)[C@H]2O)[C@](C)(OCC=NO)C[C@@H](C)C(=O)[C@H](C)[C@@H](O)[C@]1(C)O [Example 12, Compound of Formula (X): X is =O, R is -CH2-CH=N-OH] | 12.5 | 0.05 | > 100 | > 100 | 50 | > 100 | > 100 | 100 | 0.78 | 0.39 | > 100 | > 100 | 0.39 | > 100 | 0.05 | > 100 | > 100 | > 100 | 25 | > 100 | MIC [34]: 0.78 µg/mL; MIC [5]: 12.5 µg/mL; MIC [24]: 0.05 µg/mL; MIC [25]: 0.1 µg/mL; MIC [26]: 0.39 µg/mL; MIC [27]: > 100 µg/mL; MIC [28]: 0.05 µg/mL; MIC [29]: 0.78 µg/mL; MIC [30]: 0.39 µg/mL; MIC [31]: 0.39 µg/mL; MIC [32]: > 100 µg/mL; MIC [33]: 1.56 µg/mL |
